The target of data set [1] is T1, Amyloid-beta precursor protein (Homo sapiens, UniProt P05067). Kind of data set: Inhibition of Abeta42 (unknown origin) aggregation assessed as ThT fluorescence at 330 uM measured after 24 hrs by ThT fluorescence assay relative to DMSO control. Further details: scale not given: the % may be the effect or the level left.
Data set [2] deals with T1, Amyloid-beta precursor protein. Kind of data set: Inhibition of Abeta42 (unknown origin) aggregation measured after 24 hrs by ThT fluorescence assay.
The nature of data set [3]: Aqueous solubility of the compound in PBS at pH 7.4. In kind it is physicochemical.
Data set [4] in a line: Volume of distribution in Swiss mouse plasma at 2 mg/kg, iv. In kind it is ADME, organism-based.
The nature of data set [5]: Half life in human liver S9 fraction. In kind it is ADME, subcellular.
Data set [6] in a line: Volume of distribution in Swiss mouse brain at 2 mg/kg, iv. The data set is classed as ADME, organism-based.
Data set [7] can be described thus: Ratio of drug level in brain to plasma in Swiss mouse at 2 mg/kg, iv measured after 5 mins. In kind it is ADME, organism-based. Conditions: brain and plasma, read-out: BPR.
Data set [8] can be described thus: AUC in Swiss mouse brain at 2 mg/kg, iv. The data set is classed as ADME, organism-based.
Data set [9] is described as follows: Half life in Swiss mouse brain at 2 mg/kg, iv. The data set is classed as ADME, organism-based.
Data set [10] is described as follows: Apparent permeability of the compound from apical to basolateral side. Conditions: not told. In kind it is physicochemical.
Data set [11] is described as follows: Half life in Swiss mouse plasma at 2 mg/kg, iv. In kind it is ADME, organism-based.
For data set [12], the system named is P-gp. Kind of data set: Substrate activity at P-gp (unknown origin) assessed as efflux ratio of apparent permeability of the compound. In kind it is ADME. To be noted: human, not told.
Data set [13] is described as follows: Cmax in Swiss mouse brain at 2 mg/kg, iv. In kind it is ADME, organism-based. Details: dose 2 mg/kg, route intravenous.
A short description of data set [14]: AUC in Swiss mouse plasma at 2 mg/kg, iv. The data set is classed as ADME, organism-based.
A short description of data set [15]: Cmax in Swiss mouse plasma at 2 mg/kg, iv. The data set is classed as ADME, organism-based. Details: dose 2 mg/kg, route intravenous.
A short description of data set [16]: Lipophilicity, logD of the compound. The data set is classed as physicochemical. To be noted: octanol/water.
Data set [17] deals with Liver. Description: Clearance in human liver S9 fraction. The data set is classed as ADME, subcellular.

Converted amounts (≈) assume the structure as drawn.

T1 sequence (P05067 whole entry): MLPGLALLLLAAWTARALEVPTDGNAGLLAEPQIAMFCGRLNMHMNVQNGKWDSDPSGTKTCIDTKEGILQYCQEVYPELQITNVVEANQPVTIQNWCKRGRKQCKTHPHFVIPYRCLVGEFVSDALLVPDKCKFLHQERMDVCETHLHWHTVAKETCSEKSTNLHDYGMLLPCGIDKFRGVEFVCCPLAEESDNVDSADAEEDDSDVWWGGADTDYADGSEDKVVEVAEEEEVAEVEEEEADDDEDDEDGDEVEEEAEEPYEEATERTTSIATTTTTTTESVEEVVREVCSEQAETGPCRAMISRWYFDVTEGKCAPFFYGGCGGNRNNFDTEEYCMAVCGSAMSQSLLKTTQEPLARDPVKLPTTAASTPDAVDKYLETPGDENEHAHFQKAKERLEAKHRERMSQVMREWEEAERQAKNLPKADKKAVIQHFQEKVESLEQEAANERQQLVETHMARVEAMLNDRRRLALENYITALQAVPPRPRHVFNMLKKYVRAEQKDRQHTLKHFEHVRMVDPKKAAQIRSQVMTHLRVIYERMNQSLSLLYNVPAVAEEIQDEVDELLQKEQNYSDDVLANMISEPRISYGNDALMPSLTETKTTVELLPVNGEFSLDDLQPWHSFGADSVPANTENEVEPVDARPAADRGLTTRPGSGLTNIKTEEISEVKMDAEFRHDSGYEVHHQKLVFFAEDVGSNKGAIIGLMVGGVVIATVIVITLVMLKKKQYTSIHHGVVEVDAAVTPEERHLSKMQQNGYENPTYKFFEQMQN

Regarding `CNc1cccc(NCCCc2cccc(NCCCc3ccccn3)n2)n1`, the Activity in data set [1] turned out to be 12%. Also, in data set [2], inhibition was half-maximal at 17 µM (IC50).
`CNc1cccc(CNc2cccc(CNc3ccccn3)n2)n1`: the Activity in data set [1] is more than 60%. In data set [3], this compound returned a solubility of 18 µM (≈ 5.77 µg/mL).
Turning to `CNc1cccc(NCCc2cccc(NCc3ccccn3)n2)n1`, the Activity in [1] was found to be 14%.
On to `CNc1cccc(CCNc2cccc(CCN(c3ccccn3)c3ccccn3)n2)n1`, for which, in data set [1], the Activity stood at 16%. In addition, the IC50 in [2] came to 240 µM.
Turning to `Nc1c(/N=N/c2ccc(-c3ccc(/N=N/c4cc(S(=O)(=O)O)c5ccccc5c4N)cc3)cc2)cc(S(=O)(=O)O)c2ccccc12` [CONGO RED], the IC50 in data set [2] came to 1.3 µM.
In the case of `CNc1cccc(CCNc2cccc(NC)n2)n1`, in [1], the Activity is 23%.
On the same count and under the same terms, the result for `CNc1cccc(CNc2cccc(CCN(c3ccccn3)c3ccccn3)n2)n1` reads 23%.
Consider `CNc1cccc(NCCc2cccc(NCCc3ccccn3)n2)n1`, for which the volume of distribution (Vd) in data set [4] worked out at 12 L/kg; in data set [6], 18.9 L/kg. For the same compound, the Activity in data set [1] was 12%. For the same compound, the half-life is 10 min in data set [5], 314 min in [9] and 37.8 min in [11]. For the same compound, the solubility in data set [3] is more than 200 µM. In data set [2], inhibition was half-maximal at 25 µM (IC50). Also, in [7], the Kp at 5 min was 5.98. Further, the area under the curve (AUC) was found to be 863 ng·h/mL in data set [8] and 150 ng·h/mL in data set [14]. In data set [10], the Papp A→B was determined as 49.2 ×10⁻⁶ cm/s. The efflux ratio in data set [12] was 0.78. The Cmax in data set [13] amounted to 1840 ng/mL; in data set [15] it was 308 ng/mL. In data set [16], this compound showed a logD of 2.96. Further, the CLH in data set [17] amounted to 70 µL/min/mg.
For `CNc1cccc(CCNc2cccc(CCCNc3ccccn3)n2)n1`, the Activity in data set [1] stood at 23%.
As for `CNc1cccc(CNc2cccc(CCNc3ccccn3)n2)n1`, in [1], the Activity is more than 60%.
On the same count and under the same terms, the value for `CNc1cccc(CCNc2cccc(CNc3ccccn3)n2)n1` was 53%; that for `CNc1cccc(CCCNc2cccc(CCCNc3ccccn3)n2)n1` was 23%.
In the case of `CNc1cccc(CCNc2cccc(NCCc3ccccn3)n2)n1`, in [1], the Activity came to 12%. This compound also returned a solubility in data set [3] of more than 200 µM.
For `CNc1cccc(CCNc2cccc(CCNc3ccccn3)n2)n1`, the Activity in [1] stood at 16%. Besides, in [2], the IC50 amounted to 280 µM.
`CNc1cccc(NCCc2ccccn2)n1`: the Activity in data set [1] was 36%.

Source of the values: ChEMBL document CHEMBL3813681, “Synthesis and structure-activity relationship of 2,6-disubstituted pyridine derivatives as inhibitors of β-amyloid-42 aggregation” (Bioorg Med Chem Lett, 2016).
